Measurements as given in the NIST ThermoML archive (doi:10.1021/acs.jced.8b00643).

How the values were obtained:
[1] = Molar enthalpy of transition or fusion; conditions: Crystal; DSC
[2] = for vapor or sublimation pressure: Transpiration method

O=C1NCCCO1 [tetrahydro-1,3-oxazin-2-one]
Conditions | Molar enthalpy of transition or fusion [kJ/mol]
[1] | 15.3

Conditions | mass density [kg/m3]
[2], 293 K, 101.33 kPa, Crystal, Pycnometric method | 1490

[2]
Conditions | Triple point temperature [K] | vapor or sublimation pressure [kPa]
327.7 K, Crystal | – | 0.00023
332.7 K, Crystal | – | 0.00039
337.7 K, Crystal | – | 0.00061
342.7 K, Crystal | – | 0.001
345.7 K, Crystal | – | 0.00134
348.6 K, Crystal | – | 0.00167
352.6 K, Crystal | – | 0.0024
358 K, Liquid | – | 0.00409
361.3 K, Liquid | – | 0.00517
365.3 K, Liquid | – | 0.00677
368 K, Liquid | – | 0.00807
370.2 K, Liquid | – | 0.0095
372.8 K, Liquid | – | 0.01116
377.4 K, Liquid | – | 0.01498
380.3 K, Liquid | – | 0.01771
382.2 K, Liquid | – | 0.02005
385.1 K, Liquid | – | 0.02395
Crystal, DSC | 355.3 | –
